Results reported in patent publication US20230201236A1, “SPIROCYCLIC NUCLEOSIDE ANALOGUES FOR THE TREATMENT OF HEPATITIS E” (priority 2020, published 2023).

Tests used:
Assay type in all cases: cell-based
[1] = Viability evaluation (MTS/PMS) of Huh7 cells transfected with the rat HEV replicon; conditions: human, highest tested concentration 50 μM
Description: (§1) For viability evaluation, medium was removed and cells were subsequently incubated with MTS/PMS solution (3-(4,5-dimethylthiazol-2-yl)-5-(3-carboxymethoxyphenyl)-2-(4-sulfophenyl)-2H-tetrazolium/phenazinemethosulfate), which is metabolized to produce a brown, water-soluble product that is quantified after 1 h at 37° C. by absorbance read-out at 498 nm. Obtained values are expressed as percent inhibition of untreated RNA-transfected control condition. The CC50 represents the concentration at which the metabolic activity of the cells would be reduced to 50% of the metabolic activity of untreated cells (and was based on two experiments and derived by a nonlinear regression fit in GraphPad using a two-parameter logistic model while keeping the slope variable).

[2] = system: HEV Genotype 3 replicon Kernow-C1 p6/luc; experiment: Antiviral activity against HEV Genotype 3 replicon Kernow-C1 p6/luc in Huh7 cells (Gaussia luciferase); conditions: Huh-7, 96 h, luminescence after 4 days, 4PL fit, two experiments, read-out: relative EC50
Description: The antiviral activity of compounds was tested against the HEV Genotype 3 replicon Kernow-C1 p6/luc (Kernow-C1 p6: GenBank accession number JQ679013) as previously described (Debing Y, Emerson S U, Wang Y, Pan Q, Balzarini J, Dallmeier K, Neyts J. 2013. Ribavirin Inhibits In Vitro Hepatitis E Virus Replication through Depletion of Cellular GTP Pools and Is Moderately Synergistic with Alpha Interferon. Antimicrob Agents Chemother, 58:267-273). To this end, Huh7 cells were electroporated with capped in vitro transcribed Kernow-C1 p6/luc-RNA produced from Mlul-digested plasmid DNA (Shukla P, Nguyen H T, Faulk K, Mather K, Torian U, Engle R E, Emerson SU. 2012. Adaptation of a genotype 3 hepatitis E virus to efficient growth in cell culture depends on an inserted human gene segment acquired by recombination. J. Virol. 86:5697-5707), seeded in 96-well plates containing serial dilutions of the test compounds. For virus control (VC) compound was omitted. After 4 days, luminescence produced by the secreted Gaussia luciferase was quantified using the Promega Renilla luciferase kit and corrected for background with a cell control (CC, viral RNA and compound omitted). The relative 50% effective concentration (EC50) is defined as the concentration of compound that causes a 50% reduction in the Luc signal, relative to the signal range. The relative EC50 was based on two experiments and derived by a nonlinear regression fit in GraphPad using a four-parameter logistic (4PL) model.

[3] = system: rat HEV replicon LA-B350/luc; experiment: Antiviral activity against rat HEV replicon LA-B350/luc in Huh7 cells (Gaussia luciferase); conditions: Huh-7, 72 h, luminescence after 3 days, two or three experiments
Description: The antiviral activity of compounds was tested against the rat HEV replicon LA-B350/luc as described in Debing et al (Dis Model Mech 2016; 9:1203-10). To this end, Huh7 cells were electroporated with capped viral RNA produced from plasmid pLA-B350/luc, plated in 96-well plates and treated with each of compounds at selected concentrations. For virus control (VC), compound was omitted. After 3 days, luminescence produced by the secreted Gaussia luciferase was quantified using the Promega Renilla luciferase kit and corrected for background with a cell control (CC, viral RNA and compound omitted). The 50% effective concentration (EC50) is defined as the concentration of compound that causes a 50% reduction in the Luc signal compared to that of average corrected VC. The EC50 was based on two or three experiments and derived by a nonlinear regression fit in GraphPad using a two-parameter logistic model while keeping the slope variable.

[4] = Viability evaluation (MTS/PMS) of Huh7 cells transfected with Kernow-C1 p6/luc RNA; conditions: human, highest tested concentration 50 μM, read-out: relative CC50
Description: as §1, with “percentage” for “percent inhibition”, “The relative” for “The”, “and” for “(and”, “two or three” for “two”, “four-parameter” for “two-parameter”, “(4PL) model.” for “model while keeping the slope variable).”

## CC(C)OC(=O)C(C)NP(=O)(OC[C@@]1(N=[N+]=[N-])O[C@@H](n2ccc(=O)[nH]c2=O)[C@@]2(CCS2)[C@@H]1O)Oc1ccccc1 (stereo in doubt) [Compound 1, isopropyl (2R)-2-[[[(4R,5R,6R,8R)-6-azido-8-(2,4-dioxopyrimidin-1-yl)-5-hydroxy-7-oxa-1-thiaspiro[3.4]octan-6-yl]methoxy-phenoxy-phosphoryl]amino]propanoate]
[1]
  CC50: > 50 µM
[2]
  EC50: > 50 µM
[3]
  EC50: 0.74 µM
[4]
  CC50: > 50 µM

## CC(C)OC(=O)[C@H](C)NP(=O)(OC[C@@]1(F)O[C@@H](n2ccc(=O)[nH]c2=O)[C@@]2(CCS2)[C@@H]1O)Oc1ccccc1 (stereo partly drawn) [Compound 2, (2S)-isopropyl 2-(((((4R,5R,7S,8R)-5-(2,4-dioxo-3,4-dihydropyrimidin-1(2H)-yl)-7-fluoro-8-hydroxy-6-oxa-1-thiaspiro[3.4]octan-7-yl)methoxy)(phenoxy)phosphoryl)-amino)propanoate]
[1]
  CC50: > 50 µM
[3]
  EC50: 5.9 µM
[4]
  CC50: > 50 µM

## CC(C)OC(=O)[C@H](C)NP(=O)(OC[C@H]1O[C@@H](n2ccc(=O)[nH]c2=O)[C@@]2(CCS2)[C@@H]1O)Oc1ccccc1 (stereo partly drawn) [Compound 3, (2S)-isopropyl 2-(((((4R,5R,7R,8R)-5-(2,4-dioxo-3,4-dihydropyrimidin-1(2H)-yl)-8-hydroxy-6-oxa-1-thiaspiro[3.4]octan-7-yl)methoxy)(phenoxy)phosphoryl)amino)propanoate]
[1]
  CC50: > 50 µM
[2]
  EC50: > 50 µM
[3]
  EC50: 27 µM
[4]
  CC50: > 50 µM

## COC(=O)C(C)(C)NP(=O)(OC[C@H]1O[C@@H](n2ccc(=O)[nH]c2=O)[C@@]2(CCO2)[C@@H]1O)Oc1ccccc1 (stereo partly drawn) [Compound 4, methyl 2-[[[(4R,5R,7R,8R)-5-(2,4-dioxo-3,4-dihydropyrimidin-1(2H)-yl)-8-hydroxy-1,6-dioxaspiro[3.4]octan-7-yl]methoxy](phenoxy)phosphorylamino]-2-methylpropanoate]
[1]
  CC50: > 50 µM
[2]
  EC50: 0.53 µM
[3]
  EC50: 0.36 µM
[4]
  CC50: > 50 µM
